Measured values reported in publication PMC8110578, “Phenylethynylbenzyl-modified biguanides inhibit pancreatic cancer tumor growth” (Scientific Reports, 2021).
Like-named read-outs stand apart in the source and are kept apart here.

How the values were obtained:
[1] = Safranin O assay, membrane potential of EYPC liposomes; conditions: 5 mM (50 mol% relative to 10 mM EYPC)
Description: Figure 2 (A) Partition of compounds in an U-tube experiment. Concentration of biguanide on the trans-side of the U-tube at 48 h and 72 h at 25 °C, after addition of 250 µM of biguanide on the cis-side. (B) Variation in the internal pH of HPTS-containing EYPC liposomes. Intravesicular solution: 1 mM HPTS, 10 mM HEPES, and 100 mM NaCl, adjusted to pH = 7.4, and extravesicular solution: 10 mM HEPES and 100 mM NaCl, adjusted to pH = 7.4. Biguanidiums were injected after 50 s at 5 mM (50 mol% relative to the 10 mM EYPC concentration), a NaOH pulse was induced at 300 s, and the liposomes were lysed with Triton-X at 550 s. Each curve is the average of three independent measurements. (C) Fluorescence of safranin O in the EYPC liposomes. Biguanidium salts were injected at 5 mM (50 mol% relative to the 10 mM EYPC concentration) at 50 s. Each curve is the average of three independent measurements. […] Mitochondrial isolation was performed according to the previously reported protocol.

[2] = system: NAD+/NADH ratio in PSN1 cells; assay: NAD/NADH quantification, PSN1 cells; format: cell-based; conditions: 15 µM, 6 h
Description: (§1) All chemicals were purchased from Aldrich Chemicals in their highest purity and used without further purification. Deuterated dimethylsulfoxide (DMSO-d^6) and deuterated chloroform (CDCl3) were purchased from CDN Isotopes. NMR spectra were recorded on Bruker advance 400 and 100 spectrometers. Coupling constants are given in hertz (Hz) and chemical shifts are given in parts per million (ppm, δ) measured relative to the residual solvent (the multiplicity of the signals are given as s: singlet, d: doublet, t: triplet, and m: multiplet). High-resolution mass spectra (HRMS) were recorded on a TSQ Quantum Ultra (Thermo Scientific) triple quadrupole with accurate mass option instrument (Université de Montréal Mass Spectrometry Facility). […] Transport and depolarization studies as well as absorbance measurements were performed on a Varian Cary Eclipse fluorescence spectrophotometer. The hemolysis assays were performed on a Fluostar Optima plate reader. […] A suitable crystal was selected and analysed on a Bruker Venture Metaljet diffractometer. Crystal violet retention assay was used for cell growth assays and IC50 were determined using Prism (GraphPad). NAD/NADH quantitation colorimetric kit (#K337-100) from Biovision was used according to manufacturer’s instructions. ECAR (extracellular acidification rate) and OCR of KP4 cells (oxygen consumption rate) were measured on a Seahorse XF-24 (Agilent). […]

[3] = system: HPNE cells (normal immortalized pancreatic epithelial cells); assay: Growth assay (crystal violet), HPNE cells; format: cell-based, human; conditions: 3 days treatment, crystal violet retention assay
Description: . The IC50 of most of the synthetic biguanides in HPNE cells was higher than for cancer cells (Supplementary Table S12).
(§2) All chemicals were purchased from Aldrich Chemicals in their highest purity and used without further purification. Deuterated dimethylsulfoxide (DMSO-d^6) and deuterated chloroform (CDCl3) were purchased from CDN Isotopes. NMR spectra were recorded on Bruker advance 400 and 100 spectrometers. Coupling constants are given in hertz (Hz) and chemical shifts are given in parts per million (ppm, δ) measured relative to the residual solvent (the multiplicity of the signals are given as s: singlet, d: doublet, t: triplet, and m: multiplet). High-resolution mass spectra (HRMS) were recorded on a TSQ Quantum Ultra (Thermo Scientific) triple quadrupole with accurate mass option instrument (Université de Montréal Mass Spectrometry Facility). MS experiences were performed using an UltrafleXtreme MALDI TOF/TOF mass spectrometer equipped with a SmartBeam II Nd:Yag/355 nm laser operating at 1 kHz and providing a laser focus down to 20 μm in diameter (Bruker Daltonics, Billerica, MA). The data acquisition for MS was performed in positive ion mode using the linear geometry with flexControl 3.4 (Bruker Daltonics, Billerica, MA). Acceleration voltage was set to + 25 kV and all other instrumental parameters (delayed extraction parameters, source voltages, detector gain, laser energy, etc.) were optimized for maximum S/N for the drug compounds. L-α-Phosphatidylcholine was purchased from Avanti Polar Lipids. Transport and depolarization studies as well as absorbance measurements were performed on a Varian Cary Eclipse fluorescence spectrophotometer. The hemolysis assays were performed on a Fluostar Optima plate reader. Single crystals of C18H18F3N5O3S were obtained from chloroform. A suitable crystal was selected and analysed on a Bruker Venture Metaljet diffractometer. Crystal violet retention assay was used for cell growth assays and IC50 were determined using Prism (GraphPad). NAD/NADH quantitation colorimetric kit (#K337-100) from Biovision was used according to manufacturer’s instructions. ECAR (extracellular acidification rate) and OCR of KP4 cells (oxygen consumption rate) were measured on a Seahorse XF-24 (Agilent).
(§3) Experimental. KP4 (Riken RCB1005) and PSN1 (ATCC: CRM-CRL-3211), were cultured in Dulbecco's modified Eagle's medium (DMEM) (Wisent, St-Bruno, QC) supplemented with 10 % of fetal bovine serum (FBS) (Wisent). HPNE hTERT (ATCC: CRL1423) were cultured in a mix of 75% DMEM without glucose (Sigma Cat#. D-5030) with additional 2 mM L-glutamine and 1.5 g/L sodium bicarbonate, 25% Medium M3 Base (Incell Corp. Cat# M300F- 500), fetal bovine serum 5% (wisent 10 ng/ml human recombinant EGF (Sigma-Aldrich), 5.5 mM D-glucose (Sigma-Aldrich), 750 ng/ml puromycin (Sigma-Aldrich). For dose-response assays, cells were seeded in 96 well plates (company). After 24 h, treatments were applied and cells were grown for 3 more days. Crystal violet retention assay used for cell growth assays were described previously^2. The data is expressed as relative absorbance of crystal violet extracted from the cells and diluted in 10 % acetic acid. IC50 were determined using Prism (GraphPad). Tumor spheres were grew according to Ferbeyre et al^3.

AMPK = assay: Immunoblots of AMPK T172 and ACC S79 phosphorylation, KP4 cells; format: cell-based, human; conditions: 15 µM, 24 h
Description: Figure 3 Effects of biguanides on cell proliferation and viability in pancreatic cancer cells. […]. […] | decimal sign comma or point
. […]. Experimental. Cells were rinsed twice with 1X PBS, and lysed in Laemmli 2x (4% SDS, 20% glycerol, 120 mM Tris-HCl pH 6.8). Laemmli extracts were boiled for 5 minutes, then the concentration was assessed with NanoDrop (ThermoFisher) and equalized between samples. Lysates were supplemented with 10% beta-mercaptoethanol and 0.05% bromophenol blue and boiled again for 5 minutes. 25 µg of extracts were loaded on SDS-PAGE then transferred on nitrocellulose membranes for 1h30 at 130V. Membranes were rinsed in 1XPBS1-0.05% Tween-20 then blocked for 1h in 1XPBS, 0.05%-Tween-20 5% Milk. Membranes were rinsed again 3 x 10 min in PBS-Tween, then incubated overnight at 4°C with the following primary antibodies in 1XPBS-0.1%BSA, 0.02%Sodium azide: anti-phospho-AMPK T172 (1:1000, Rabbit, 2531S, Cell Signaling), anti-AMPKalpha (1:1000, Rabbit, 2532, Cell Signaling), anti-phospho-ACC S79 (1:1000, Rabbit Polyclonal, 3661S, Cell Signaling), or incubated for 1h at RT with anti-beta-Actin (1:2000, Mouse, 3700, Cell Signaling). […]

KP4 cells = assay: Growth assay (crystal violet), KP4 cells; format: cell-based, human; conditions: for IC50: KP4 cells
Description: as §2, §3

AH375 cells = assay: Tumor sphere formation, AH375 cells; format: cell-based, mouse; conditions: 24 h treatment
[4] = system: NAD+/NADH ratio in KP4 cells; assay: NAD/NADH quantification, KP4 cells; format: cell-based, human
Description: as §1

cancer cells = conditions: cited from earlier work
[5] = Homo sapiens, KP-4, 72 h, 72 hours, read-out: IC50

Row | Compound | Membrane depolarization (Safranin-O fluorescence) [1] | Decrease of NAD+/NADH ratio [2] | IC50 [3] | AMPK activation (phosphorylation of AMPK T172 and ACC) (AMPK) | IC50 (KP4 cells; [5]) | IC50 fold lower than phenformin (KP4 cells; KP4 and Panc1 cells) | IC50 (KP4 cells; 3 days treatment, crystal violet retention assay, read-out: IC50 KP4) | Fold more active than metformin (KP4 cells; conclusion) | Decrease of the number of AH375 spheres (AH375 cells; 5 µM) | Decrease of NAD+/NADH ratio ([4]; KP4 cells, 15 µM, 18 h) | Fold lower concentration than metformin for AMPK activation, decrease of NAD+/NADH ratio and mitochondrial respiration ([4]; abstract) | Reported antiproliferative concentration in vitro (cancer cells) | Decrease of the number of AH375 spheres (AH375 cells; 1 mM)
1 | N=C(N)NC(=N)NCc1ccc(C#Cc2ccccc2)cc1 [1b, 4-(phenylethynyl)benzylbiguanide] | depolarization of the membrane | 25% | 80.9 µM | induced AMPK activation | 6.1 µM | 8–12 fold | 6.13 µM | 1000 fold | 75% | 40% | 800 fold | – | –
2 | CN(C)C(=N)NC(=N)N [metformin, 1,1-dimethylbiguanide, reference compound] | did not show this activity | – | – | – | ~5000 µM | – | – | – | – | – | – | 5 mM | 50%
